Results reported in patent US11236086B2, “Substituted pyrrolopyridines as inhibitors of activin receptor-like kinase” (BLUEPRINT MEDICINES CORPORATION, priority 2017, dated 2022).

Legend:
[1] = biological target: T1, ALK2R206H (mutant ALK2, N-terminally tagged with GST) (Homo sapiens, UniProt Q04771, R206H); test: ALK binding assay (LANTHASCREEN TR-FRET competitive binding, displacement of Kinase Tracer 178); details: read-out: Binding Assay (IC50 class)
T1 construct: purchased Carna Bioscience or ThermoFisher 09-148 or PV6232
T1 sequence (Q04771 21-509 R206H): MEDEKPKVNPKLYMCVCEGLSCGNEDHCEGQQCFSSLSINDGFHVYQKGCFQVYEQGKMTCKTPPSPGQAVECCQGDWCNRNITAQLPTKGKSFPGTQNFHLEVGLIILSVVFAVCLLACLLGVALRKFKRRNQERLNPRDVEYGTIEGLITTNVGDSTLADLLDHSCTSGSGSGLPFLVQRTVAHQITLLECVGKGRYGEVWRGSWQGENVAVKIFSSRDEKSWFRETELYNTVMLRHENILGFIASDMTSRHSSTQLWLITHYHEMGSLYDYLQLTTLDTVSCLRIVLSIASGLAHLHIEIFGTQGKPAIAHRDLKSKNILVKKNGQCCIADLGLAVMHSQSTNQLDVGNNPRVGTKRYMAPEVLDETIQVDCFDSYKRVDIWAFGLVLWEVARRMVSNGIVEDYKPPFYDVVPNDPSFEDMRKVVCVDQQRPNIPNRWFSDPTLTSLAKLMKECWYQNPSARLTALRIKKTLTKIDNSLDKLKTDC
Method in brief: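 Competitive displacement of Kinase Tracer 178 (50 nM) from N-terminally GST-tagged mutant ALK2 R206H (2-5 nM) by compound, detected by TR-FRET with Eu-anti-GST antibody (4-10 nM). 30 min room temperature incubation, 1% DMSO final; normalized signal fitted to 4-parameter log dose response for IC50.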

human ALK2 R206H = biological target: T2, human ALK2 R206H (Homo sapiens, UniProt Q04771, R206H); test: Cell-based ALK2-R206H cell activity assay (Smad1-Ser463/Ser465 phosphorylation by AlphaLISA in HEK293-ALK2-R206H cells); details: phospho-Smad1 AlphaLISA, read-out: Cell Line (Cell Assay, IC50 class)
T2 construct: expressed in transfected cells; host or cells: HEK293 (ATCC CRL1573), lentivirus transduction, blasticidin selection
T2 sequence (Q04771 21-509 R206H): T1 sequence (Q04771 21-509 R206H)
Experimental: Example 11. Cell-Based ALK2-R206H Cell Activity Assay
A HEK293 (ATCC, Cat No. CRL1573) based stable cell line expressing human ALK2 R206H cDNA (synthesized by GeneScript, Piscataway, N.J.) and a FLAG tag at the C-terminus was generated by lentivirus transduction and subsequent blasticidin (Life Technologies, Cat No. A1113902) selection at 10 μg/ml for >2 wks. This cell line was named HEK293-ALK2-R206H.
B. Measurement of Smad1-Ser463/Ser465 Phosphorylation by AlphaLISA
HEK293-ALK2-R206H cells were grown, harvested, and then resuspended in serum-free, phenol red-free DMEM high glucose media (Life Technologies, Cat No. 31053). The media also contained 50 units/ml penicillin and 50 μg/ml streptomycin (Life Technologies, Cat. No. 15070-063). HEK293-ALK2-R206H cells were then plated in white opaque 384-wells microplates (2×10^4/well) (OptiPlate-384, PerkinElmer, Waltham, Mass., Cat No. 6007299) overnight (>16h) at 37° C. 5% CO2 for use in the assay.
Test compounds were first diluted to 4 mM or 0.4 mM and then serially diluted 3-fold into 10 different concentrations using DMSO. Each concentration of compound was further diluted 40-fold with phenol red-free DMEM (Life Technologies, Cat No. 31053). 2 μl of the diluted compounds were then dispensed into the HEK293-ALK2-R206H cell-containing wells of the microplates in duplicates. In this way, each compound was tested in 10 doses (3-fold serial dilution with the top concentration being 10 μM or 1 μM). Liquid handling was achieved using a Bravo Automated Liquid Handling Platform (Agilent Technologies). DMSO without compound was used as a negative control. The positive control was 1 μM LDN193189, a known bone morphogenetic protein (BMP inhibitor).
After 2-3 hours of incubation with test compound or control, the cells were lysed and signal was developed using ALPHASCREEN® SUREFIRE® SMAD1 (p-Ser463/465) cellular kinase assay kit (PerkinElmer, Cat No. TGRSM1S10K) following the manufacturer's recommended protocol. The microplates were read using Perkin Elmer ENVISION® plate reader (emission […]). The signal reflected the level of phospho-Ser/463/465-Smad1 in the lysate. The raw data were plotted using the DMSO negative and LDN193189 positive controls as the 0% and 100% inhibition, respectively. The 10-point dose response curve was used to calculate the IC50 values.
The results of this assay are shown in Table 3 in the column labeled “Cell Assay” wherein “A” represents an IC50 of less than or equal to 100 nM; “B” an IC50 of greater than 100 nM and less than or equal to 500 nM; “C” an IC50 of greater than 500 nM. Blank values in the table indicate that the particular compound was not tested in this assay.

SMILES	IC50 [1]	IC50 (human ALK2 R206H)
O=C(OC1COC1)N1CCN(c2ccnc3[nH]c(-c4cccnc4)cc23)CC1 [Compound 67]	≤ 10 nM	100 to 500 nM
CCOC(=O)N1CCN(c2ccnc3[nH]c(-c4cnn(C)c4)c(C#N)c23)CC1 [Compound 68]	≤ 10 nM	≤ 100 nM
CCOC(=O)N1CCN(c2ccnc3[nH]c(-c4cn(C)nc4C#N)cc23)CC1 [Compound 69]	≤ 10 nM	≤ 100 nM
CCOC(=O)N1CCN(c2ccnc3[nH]c(-c4cnn(C)c4C#N)cc23)CC1 [Compound 70]	≤ 10 nM	≤ 100 nM
Cn1cc(-c2cc3c(N4CCN(C(=O)OCCC#N)CC4)ccnc3[nH]2)cn1 [Compound 71]	≤ 10 nM	100 to 500 nM
Cc1nc(-c2cc3c(N4CCN(C(=O)OC5CC5)CC4)ccnc3[nH]2)cn1C [Compound 75]	≤ 10 nM	≤ 100 nM
Cn1cnc(-c2cc3c(N4CCN(C(=O)OC5CCC5)CC4)ccnc3[nH]2)c1 [Compound 76]	≤ 10 nM	≤ 100 nM
Cn1cc(-c2cc3c(N4CCN(C(=O)OC5CCC5)CC4)ccnc3[nH]2)cn1 [Compound 77]	≤ 10 nM	≤ 100 nM
CCCC(C)C(=O)N1CCN(c2ccnc3[nH]c(-c4cnn(C)c4)cc23)CC1 (stereo not shown) [Compound 82]	≤ 10 nM	> 500 nM
CCOC(=O)N1CCN(c2ccnc3[nH]c(-c4csc(C#N)c4)cc23)CC1 [Compound 86]	≤ 10 nM	≤ 100 nM
Cn1cnc(-c2cc3c(N4CCN(C(=O)OC5COC5)CC4)ccnc3[nH]2)c1 [Compound 89]	≤ 10 nM	≤ 100 nM
Cn1cc(-c2cc3c(N4CCN(C(=O)OC5COC5)CC4)ccnc3[nH]2)cn1 [Compound 90]	≤ 10 nM	≤ 100 nM
Cn1ccc(-c2cc3c(N4CCN(C(=O)OC5COC5)CC4)ccnc3[nH]2)n1 [Compound 91]	≤ 10 nM	100 to 500 nM
Cn1cc(-c2cc3c(N4CCN(C(=O)C5CC(F)C5)CC4)ccnc3[nH]2)cn1 (stereo not shown) [Compound 93]	≤ 10 nM	≤ 100 nM
CCOC(=O)N1CCN(c2ccnc3[nH]c(-c4cnn(C(C)C)c4)cc23)CC1 [Compound 96]	≤ 10 nM	≤ 100 nM
CC(C)COC(=O)N1CCN(c2ccnc3[nH]c(-c4cnn(C)c4)cc23)CC1 [Compound 97]	≤ 10 nM	100 to 500 nM
CCC(C)OC(=O)N1CCN(c2ccnc3[nH]c(-c4cnn(C)c4)cc23)CC1 (stereo not shown) [Compound 98]	≤ 10 nM	100 to 500 nM
CCOC(=O)N1CCN(c2ccnc3[nH]c(-c4cnn(C)c4CC)cc23)CC1 [Compound 100]	≤ 10 nM	100 to 500 nM
Cc1nc(-c2cc3c(N4CCN(C(=O)OC5COC5)CC4)ccnc3[nH]2)co1 [Compound 102]	≤ 10 nM	100 to 500 nM
Cc1ncc(-c2cc3c(N4CCN(C(=O)OC5COC5)CC4)ccnc3[nH]2)o1 [Compound 103]	≤ 10 nM	100 to 500 nM
Cc1cc(-c2cc3c(N4CCN(C(=O)OC5COC5)CC4)ccnc3[nH]2)on1 [Compound 104]	≤ 10 nM	100 to 500 nM
Cn1cc(-c2cc3c(N4CCN(C(=O)OC5COC5)CC4)ccnc3[nH]2)nn1 [Compound 105]	≤ 10 nM	100 to 500 nM
Cc1nc(-c2cc3c(N4CCN(C(=O)OC5CC5)CC4)ccnc3[nH]2)cs1 [Compound 109]	≤ 10 nM	≤ 100 nM
CCOC(=O)N1CCN(c2ccnc3[nH]c(-c4cnn(C)c4)c(CO)c23)CC1 [Compound 111]	≤ 10 nM	100 to 500 nM
O=C(OC1COC1)N1CCN(c2ccnc3[nH]c(-c4cscn4)cc23)CC1 [Compound 112]	≤ 10 nM	≤ 100 nM

The next lines start with the values.

IC50 [1]	IC50 (human ALK2 R206H)	SMILES
≤ 10 nM	≤ 100 nM	CCOC(=O)N1CCN(c2ccnc3[nH]c(-c4ncc(CC)s4)cc23)CC1 [Compound 113]
≤ 10 nM	≤ 100 nM	CCOC(=O)N1CCN(c2ccnc3[nH]c(-c4nc(C)c(C)s4)cc23)CC1 [Compound 114]
≤ 10 nM	≤ 100 nM	CCOC(=O)N1CCN(c2ccnc3[nH]c(-c4ccccn4)c(Cl)c23)CC1 [Compound 115]
≤ 10 nM	≤ 100 nM	C[C@H](F)COC(=O)N1CCN(c2ccnc3[nH]c(-c4cnn(C)c4)cc23)CC1 [Compound 116]
≤ 10 nM	≤ 100 nM	C[C@@H](CF)OC(=O)N1CCN(c2ccnc3[nH]c(-c4cnn(C)c4)cc23)CC1 [Compound 117]
≤ 10 nM	100 to 500 nM	C[C@@H](F)COC(=O)N1CCN(c2ccnc3[nH]c(-c4cnn(C)c4)cc23)CC1 [Compound 118]
≤ 10 nM	100 to 500 nM	CC(C)c1ccc(-c2cc3c(N4CCN(C(=O)C5CC5)CC4)ccnc3[nH]2)cc1 [Compound 120]
≤ 10 nM	≤ 100 nM	CCOC(=O)N1CCN(c2ccnc3[nH]c(-c4cnn(C)c4)c(Cl)c23)CC1 [Compound 121]
≤ 10 nM	100 to 500 nM	CCOC(=O)N1CCN(c2ccnc3[nH]c(-c4cn(C)nc4Cl)cc23)CC1 [Compound 122]
≤ 10 nM	100 to 500 nM	Cn1cc(-c2cc3c(N4CCN(C(=O)[C@H]5C[C@H](C#N)C5)CC4)ccnc3[nH]2)cn1 [Compound 123]
≤ 10 nM	≤ 100 nM	Cn1cnc(-c2cc3c(N4CCN(C(=O)OCC(F)F)CC4)ccnc3[nH]2)c1 [Compound 124]
≤ 10 nM	≤ 100 nM	CCOC(=O)N1CCN(c2ccnc3[nH]c(-c4cnn(C(F)F)c4)cc23)CC1 [Compound 125]
≤ 10 nM	≤ 100 nM	Cn1cc(-c2cc3c(N4CCN(C(=O)OCC(F)F)CC4)ccnc3[nH]2)cn1 [Compound 126]
10 to 50 nM	100 to 500 nM	CCOc1ccc(-c2cc3c(N4CCN(C(=O)C5CC5)CC4)ccnc3[nH]2)cc1 [Compound 127]
≤ 10 nM	100 to 500 nM	O=C(C1CC1)N1CCN(c2ccnc3[nH]c(-c4cnn(C5CCC5)c4)cc23)CC1 [Compound 128]
≤ 10 nM	≤ 100 nM	Cn1cc(-c2[nH]c3nccc(N4CCN(C(=O)OC5CC5)CC4)c3c2C#N)cn1 [Compound 129]
≤ 10 nM	≤ 100 nM	Cn1cnc(-c2[nH]c3nccc(N4CCN(C(=O)OC5CC5)CC4)c3c2C#N)c1 [Compound 130]
10 to 50 nM	> 500 nM	Cn1cc(-c2cc3c(N4CCN(C(=O)CC(F)(F)F)CC4)ccnc3[nH]2)cn1 [Compound 131]
≤ 10 nM	≤ 100 nM	CC#Cc1c(-c2cnn(C)c2)[nH]c2nccc(N3CCN(C(=O)OCC)CC3)c12 [Compound 132]
≤ 10 nM	100 to 500 nM	O=C(C1CC1)N1CCN(c2ccnc3[nH]c(-c4cnn(C5COC5)c4)cc23)CC1 [Compound 133]
≤ 10 nM	100 to 500 nM	Cn1cc(-c2cc3c(N4CCN(C(=O)C5CCCCC5)CC4)ccnc3[nH]2)cn1 [Compound 134]
≤ 10 nM	100 to 500 nM	Cn1cc(-c2cc3c(N4CCN(C(=O)CC5CCCC5)CC4)ccnc3[nH]2)cn1 [Compound 135]
